# In patent publication US20240075087A1, “COMPOSITIONS AND METHODS COMPRISING HEMP EXTRACT FOR THE TREATMENT OF ANIMALS IN NEED” (Portland Technology Holdings LLC, priority 2021, published 2024):
# Structures can show the parent of a compound that is named as a salt.
# Experiments:
# CMT12 cell line = conditions: 48 hours MTT
# Description: (§1) CMT12, 17-71 and D17 cells are plated at a density of 2500 cells per well in 96-well tissue culture-treated plates (Laboratory Product Sales, Rochester, New York). All cell lines are treated with identical concentrations of the pure CBD ([…]) and various concentrations of doxorubicin or vincristine. The concentration of doxorubicin varies between cell lines in order to achieve between 20% and 80% proliferation inhibition. The cell lines are treated with serial dilutions of doxorubicin as follows; CMT12 and D17 (0.067-2 μM) and 17-71 (0.0167-0.5 μM). Methanol is used as a vehicle control for all CBD treatments and sterile water for doxorubicin and vincristine at the highest doses used to represent the vehicle control treated wells. Cells are then incubated for 48 hours prior to performing MTT assays, as previously described. Wells treated with the vehicle control are considered to represent 100% proliferating cells in triplicate over three experiments. Percent viable cells for each specific combination are averaged and reported as mean percent proliferation+/— SD for further CI evaluation.
# (§2) Raw data from MTT proliferation assays and trypan blue exclusion assays (individual optical density of each well) are normalized to the vehicle control treatment for each cell line, considered to represent 100% proliferating cells (single or combined treatment). The percent proliferating cells is determined by comparing optical density readings or live counts, respectively, of treatment wells at each concentration compared with vehicle control wells in each cell line.
# (§3) The compound interactions of chemotherapy and CBD treatment in the CI studies are calculated by multiple drug effect analysis using Compusyn software (v.2; Compusyn Inc, Paramus, New Jersey) which employs the median equation principle according to the methodology described by Chou and Talalay to determine a CI value by the Formula I (Chou T C, Drug combination studies and their synergy quantification using the Chou-Talalay method, Cancer Res., 2010, 70(2), pp. 440-446, which is incorporated herein by reference in its entirety):
# (§4) where (D)1 and (D)2 are the doses of both compounds in combination and (Dx)1 and (Dx)2 are the doses of each compound alone at x percent of inhibition. CI values≤0.9 indicate synergism, a CI value>0.9 and <1.1 indicates an additive effect, and CI values≥1.1 indicate antagonism.
# D17 cell line = conditions: 48 hours MTT
# Description: as §1, §2, §3, §4
# [1] = Pharmacokinetics of three oral forms of CBD-rich hemp extract in dogs (serum LC-MS/MS); conditions: oral hemp extract forms 2 mg/kg CBD/CBDA
# Description: The pharmacokinetics of cannabidiol (CBD), cannabidiolic acid (CBDA), Δ9-tetrahydrocannabinol (THC), and tetrahydrocannabinolic acid (THCA) on three oral forms of CBD-rich hemp extract that contained near equal amounts of CBD and CBDA, and minor amounts (<0.3% by weight) of THC and THCA in dogs were studied. The metabolized psychoactive component of THC, 11-hydroxy-Δ9-tetrahydrocannabinol (11-OH-THC) and CBD metabolites 7-hydroxycannabidiol (7-OH-CBD) and 7-nor-7-carboxycannabidiol (7-COOH-CBD) were also assessed to better understand the pharmacokinetic differences between three formulations regarding THC and CBD, and their metabolism. Six purpose-bred female beagles were utilized for study purposes, each having an initial 7-point, 24-h pharmacokinetic study performed using a dose of 2 mg/kg body weight of CBD/CBDA (˜1 mg/kg CBD and ˜1 mg/kg CBDA). Dogs were then dosed every 12 h for 2 weeks and had further serum analyses at weeks 1 and 2, 6 h after the morning dose to assess serum cannabinoids. Serum was analyzed for each cannabinoid or cannabinoid metabolite using liquid chromatography and tandem mass spectroscopy (LC-MS/MS).
# CYP3A12 = CYP3A12 (Canis lupus familiaris, UniProt P24463); assay: CYP3A12 activity inhibition in pooled dog liver microsomes; conditions: CYP3A12; no preincubation vs 20 min preincubation; 10 μM
# Description: (§5) Inhibition potency (i.e. IC50) is determined by measuring the decrement in metabolism of P450-specific marker activities in pooled dog liver microsomes with increasing concentrations of CBD, CBDA, and hemp extracts. P450-specific markers include bupropion 6-hydroxylation (CYP2B11), dextromethorphan 0-demethylation (CYP2D15) and omeprazole sulfoxidation (CYP3A12). IC50 values are determined both with and without preincubation of liver microsomes with potential inhibitor to evaluate whether there is mechanism-based time-dependent inhibition.
# (§6) The following parameters are assessed: (1) the rates of CBD and CBDA metabolism by dog liver microsomes and by 11 recombinant canine P450 enzymes; (2) the predicted percent contribution of each P450 to total CBD and CBDA metabolism in dog liver; and (3) IC50 values for inhibition of CYP2B11, CYP2D15 and CYP3A12 metabolism in dog liver, both with and without inhibitor preincubation.
# (§7) FIGS. 13-15 show activity assays for CYP3A12 (FIGS. 13A and 13B), CYP2B11 (FIGS. 14A and 14B), and CYP2D15 (FIGS. 15A and 15B). Assays using either no preincubation (FIGS. 13A, 14A, and 15A) or 20 minutes of preincubation (FIGS. 13B, 14B, and 15B) were performed.
# CYP2B11 = molecular target: T1, CYP2B11 (Canis lupus familiaris, UniProt P24460); assay: CYP2B11 activity inhibition in pooled dog liver microsomes; conditions: CYP2B11; no preincubation vs 20 min preincubation; 10 μM
# T1 sequence (P24460 1-494): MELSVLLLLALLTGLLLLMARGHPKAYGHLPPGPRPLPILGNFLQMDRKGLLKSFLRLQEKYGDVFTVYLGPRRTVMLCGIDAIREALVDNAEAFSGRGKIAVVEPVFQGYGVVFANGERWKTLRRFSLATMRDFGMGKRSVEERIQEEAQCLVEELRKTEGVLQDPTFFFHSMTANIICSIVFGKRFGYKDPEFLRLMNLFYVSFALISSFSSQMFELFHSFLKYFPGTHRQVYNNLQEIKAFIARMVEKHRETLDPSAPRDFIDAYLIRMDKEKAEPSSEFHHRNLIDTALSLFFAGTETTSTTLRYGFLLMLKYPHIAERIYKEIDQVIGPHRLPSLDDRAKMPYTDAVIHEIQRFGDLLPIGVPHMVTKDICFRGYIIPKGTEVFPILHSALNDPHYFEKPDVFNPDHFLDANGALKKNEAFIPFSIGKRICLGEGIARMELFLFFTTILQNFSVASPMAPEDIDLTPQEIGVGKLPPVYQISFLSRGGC
# Description: as §5, §6, §7
# CYP2D15 = molecular target: T2, CYP2D15 (Canis lupus familiaris, UniProt Q29473); assay: CYP2D15 activity inhibition in pooled dog liver microsomes; assay type: in vitro ADME; conditions: no preincubation vs 20 min preincubation, 10 μM
# T2 construct: P450-specific marker activities in pooled dog liver microsomes; from tissue; host or cells: pooled dog liver microsomes
# T2 sequence (Q29473 1-500): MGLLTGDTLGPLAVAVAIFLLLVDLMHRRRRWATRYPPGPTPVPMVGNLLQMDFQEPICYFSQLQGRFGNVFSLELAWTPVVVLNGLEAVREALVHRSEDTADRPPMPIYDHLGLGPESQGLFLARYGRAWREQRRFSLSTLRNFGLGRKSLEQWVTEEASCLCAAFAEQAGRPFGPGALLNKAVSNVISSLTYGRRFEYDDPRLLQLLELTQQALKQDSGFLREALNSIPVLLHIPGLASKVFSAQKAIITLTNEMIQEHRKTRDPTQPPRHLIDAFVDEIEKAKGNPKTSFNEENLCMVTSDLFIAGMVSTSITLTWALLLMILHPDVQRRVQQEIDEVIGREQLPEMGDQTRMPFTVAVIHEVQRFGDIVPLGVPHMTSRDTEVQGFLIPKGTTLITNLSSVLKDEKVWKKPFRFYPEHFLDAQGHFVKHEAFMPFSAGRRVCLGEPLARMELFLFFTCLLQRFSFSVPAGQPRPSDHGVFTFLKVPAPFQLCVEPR
# [2] = system: 17-71 B cell lymphoma cell line; assay: 48 hours MTT proliferation assay, 17-71; assay type: cell-based, canine; conditions: pure compound
# Description: (§8) 3-(4,5-Dimethylthaizol-2-yl)-2,5-diphenyltetrazolium bromide (MTT) assays are performed on all previously described cell lines; CMT12, HMPOS, D17, Abrams and 17-71. […] Cells are treated with vehicle (methanol or ethanol/DMSO mix) or various concentrations of the CBD, CBDA or CBD-rich hemp extract ranging from 0.42 to 20 μg/mL in serial dilution for 48 hours. MTT assays are performed after 48 hours of treatment by adding 20 μL of MTT dye ([…] filtered 5 mg/mL in phosphate-buffered saline [PBS]) to each well and incubating at 37° C. in 5% CO2 for 2 hours. The media is then aspirated, washed once with 200 μL of PBS and then solubilized in 200 μL of ethanol. Immediate analysis of the optical density of each well is performed using a spectrophotometric plate reader (Epoch; Biotek, Winooski, Vermont) at a wavelength of 570 nm as previously described (e.g., Vega-Avila E and Pugsley M K, An overview of colorimetric assay methods used to assess survival or proliferation of mammalian cells, Proc West Pharmacol Soc., 2011, 54, pp. 10-14 which is incorporated herein by reference in its entirety). The percent proliferating cells of control for each concentration is averaged and reported as a mean+/—SD from triplicate wells over three experiments.
# (§9) For CBD, CBDA and hemp extract concentrations needed to obtain a 50% inhibition of cell proliferation (IC50) are then calculated across experiments by Probit analysis using XLFit5 software (IDBS, Guildford, United Kingdom) for reporting the results for each cell line.
# [3] = system: CMT12 mammary gland carcinoma cell line; assay: 48 hours MTT proliferation assay, CMT12; assay type: cell-based, canine; conditions: pure compound
# Description: as §8, §9
# [4] = system: Abrams osteosarcoma cell line; assay: 48 hours MTT proliferation assay, Abrams; assay type: cell-based, canine; conditions: pure compound
# Description: as §8, §9
# [5] = system: D17 osteosarcoma cell line; assay: 48 hours MTT proliferation assay, D17; assay type: cell-based, canine; conditions: pure compound
# Description: as §8, §9
# [6] = system: HMPOS osteosarcoma cell line; assay: 48 hours MTT proliferation assay, HMPOS; assay type: cell-based, canine; conditions: pure compound
# Description: as §8, §9
# canine P-glycoprotein = molecular target: T3, canine P-glycoprotein (Canis lupus familiaris, UniProt C0KKU9); assay: P-glycoprotein competitive transport assay (rhodamine 123, MDCK PGP cells); assay type: in vitro ADME; conditions: rhodamine competition, CBD at 1000 ng/mL
# T3 construct: host or cells: MDCK PGP cells (canine P-gp expressing cell line)
# Description: In this second study, a competitive P-gp substrate assay incorporating a canine P-gp expressing cell line is used to assess each test compound's ability to compete with the P-gp substrate rhodamine 123. Each concentration is tested on 3 separate days with same-day duplicates. Positive controls and negative controls are included in each run.
# Results for each concentration of test compound evaluated are reported as non-P-gp substrate, weak P-gp substrate, moderate P-gp substrate, or strong P-gp substrate. The concentrations for CBD and CBDA are as follows: 10 ng/mL, 100 ng/mL and 1,000 ng/mL.
# A competitive P-gp substrate assay using a canine P-gp expressing cell line was used to assess CBDA and/or CBD as a substrate for canine P-glycoprotein.
# T3 sequence (C0KKU9 1-1281): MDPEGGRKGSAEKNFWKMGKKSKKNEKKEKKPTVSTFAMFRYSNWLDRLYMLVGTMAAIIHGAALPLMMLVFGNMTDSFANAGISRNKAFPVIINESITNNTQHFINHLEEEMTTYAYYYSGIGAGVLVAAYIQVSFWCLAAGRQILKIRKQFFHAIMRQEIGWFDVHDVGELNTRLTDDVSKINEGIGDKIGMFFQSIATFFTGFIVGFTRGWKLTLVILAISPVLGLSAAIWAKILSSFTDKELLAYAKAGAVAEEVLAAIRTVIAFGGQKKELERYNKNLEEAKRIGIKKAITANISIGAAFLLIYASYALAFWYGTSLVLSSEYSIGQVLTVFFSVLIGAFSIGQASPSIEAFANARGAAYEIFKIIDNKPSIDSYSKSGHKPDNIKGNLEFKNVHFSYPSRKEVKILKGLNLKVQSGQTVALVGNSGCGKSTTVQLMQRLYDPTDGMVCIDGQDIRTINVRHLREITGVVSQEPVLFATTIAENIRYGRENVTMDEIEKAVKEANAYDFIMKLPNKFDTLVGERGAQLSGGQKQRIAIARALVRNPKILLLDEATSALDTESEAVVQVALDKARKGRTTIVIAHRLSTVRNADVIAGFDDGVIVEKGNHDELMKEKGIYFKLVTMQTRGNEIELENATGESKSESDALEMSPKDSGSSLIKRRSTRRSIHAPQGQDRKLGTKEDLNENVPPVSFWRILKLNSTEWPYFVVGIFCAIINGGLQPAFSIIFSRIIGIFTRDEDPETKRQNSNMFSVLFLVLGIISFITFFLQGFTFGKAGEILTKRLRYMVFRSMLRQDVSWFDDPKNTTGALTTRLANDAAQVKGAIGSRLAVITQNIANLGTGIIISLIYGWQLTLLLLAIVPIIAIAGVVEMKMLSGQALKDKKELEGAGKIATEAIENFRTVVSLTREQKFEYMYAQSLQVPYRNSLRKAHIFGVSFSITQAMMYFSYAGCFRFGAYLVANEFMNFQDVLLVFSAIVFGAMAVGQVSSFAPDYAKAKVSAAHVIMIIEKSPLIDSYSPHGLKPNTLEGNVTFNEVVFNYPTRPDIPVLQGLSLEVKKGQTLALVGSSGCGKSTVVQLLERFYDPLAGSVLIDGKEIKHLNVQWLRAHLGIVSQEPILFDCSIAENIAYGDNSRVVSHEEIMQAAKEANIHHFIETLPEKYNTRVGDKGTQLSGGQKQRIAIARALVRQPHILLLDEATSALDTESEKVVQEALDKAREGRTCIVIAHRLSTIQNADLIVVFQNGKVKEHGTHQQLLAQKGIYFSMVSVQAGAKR
# CYP3A12, sequence (P24463 whole entry): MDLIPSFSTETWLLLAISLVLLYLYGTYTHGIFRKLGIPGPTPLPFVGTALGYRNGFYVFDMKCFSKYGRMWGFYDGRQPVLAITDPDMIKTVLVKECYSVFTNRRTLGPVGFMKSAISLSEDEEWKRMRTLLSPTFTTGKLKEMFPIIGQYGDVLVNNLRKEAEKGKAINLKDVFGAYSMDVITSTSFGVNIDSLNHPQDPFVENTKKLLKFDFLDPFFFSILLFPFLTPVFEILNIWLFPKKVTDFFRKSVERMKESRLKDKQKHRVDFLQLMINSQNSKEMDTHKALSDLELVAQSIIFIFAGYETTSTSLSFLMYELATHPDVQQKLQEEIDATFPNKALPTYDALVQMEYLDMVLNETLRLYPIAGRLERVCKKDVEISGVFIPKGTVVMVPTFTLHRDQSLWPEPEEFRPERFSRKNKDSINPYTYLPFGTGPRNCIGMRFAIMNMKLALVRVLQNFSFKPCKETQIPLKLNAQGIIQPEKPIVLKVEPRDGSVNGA
compound,measurement,setting,value
"CC[C@]1(O)C[C@H]2CN(CCc3c([nH]c4ccccc34)[C@@](C(=O)OC)(c3cc4c(cc3OC)N(C=O)[C@H]3[C@@](O)(C(=O)OC)[C@H](OC(C)=O)[C@]5(CC)C=CCN6CC[C@]43[C@@H]65)C2)C1 [vincristine, vincristine sulfate]",IC20-IC80 values,CMT12 cell line; vincristine alone,1.7 to 6.8 nM
same,IC20-IC80 values,D17 cell line; vincristine alone,1.7 to 6.8 nM
"CCCCCc1cc(O)c2c(c1)OC(C)(C)[C@@H]1CCC(C)=C[C@@H]21 [THC, delta-9-tetrahydrocannabinol]",THC serum concentration,[1],below the quantitation limit of the assay for nearly all samples
"COc1cccc2c1C(=O)c1c(O)c3c(c(O)c1C2=O)C[C@@](O)(C(=O)CO)C[C@@H]3O[C@H]1C[C@H](N)[C@H](O)[C@H](C)O1 [doxorubicin, doxorubicin hydrochloride]",inhibitory concentrations from IC20-IC80,CMT12 cell line; doxorubicin alone,500 to 2000 nM
same,inhibitory concentrations from IC20-IC80,D17 cell line; doxorubicin alone,500 to 2000 nM
"C=C(C)[C@@H]1CCC(C)=C[C@H]1c1c(O)cc(CCCCC)c(C(=O)O)c1O [CBDA, cannabidiolic acid]",time-dependent inhibition (TDI),CYP3A12,did not show TDI
same,time-dependent inhibition (TDI),CYP2B11,did not show TDI
same,time-dependent inhibition (TDI),CYP2D15,did not show TDI
same,IC50,"[2]; Canis lupus familiaris, B-cell, read-out: IC50 (Probit)",15.1 µg/mL
same,concentrations that significantly diminished proliferation vs vehicle control,[2]; P<0.05,≥ 5 µg/mL
same,IC50 (Probit),[3],could not be determined since 50% growth inhibition is not achieved in the assay
same,concentrations that significantly diminished proliferation vs vehicle control,[3]; P<0.05,≥ 10 µg/mL
same,IC50 (Probit),[4],could not be calculated because of lack of growth inhibition
same,concentrations that significantly diminished proliferation vs vehicle control,[4]; P<0.05,20 µg/mL
same,IC50 (Probit),[5],could not be calculated because of lack of growth inhibition
same,concentrations that significantly diminished proliferation vs vehicle control,[5]; P<0.05,20 µg/mL
same,IC50 (Probit),[6],could not be calculated because of lack of growth inhibition
same,concentrations that significantly diminished proliferation vs vehicle control,[6]; P<0.05,20 µg/mL
N.N.O=C([O-])C1(C(=O)[O-])CCC1.[Pt+2] [Carboplatin],Mean MFI ratio compound:vehicle,canine P-glycoprotein,0.74
same,MFI in MDCK PGP cells,canine P-glycoprotein; rhodamine alone 215,160
